Measured values reported in patent US20240041042A1, “1-(PYRIDYL)-5-AZINYLPYRAZOLE DERIVATIVES, AND THEIR USE FOR CONTROL OF UNDESIRED PLANT GROWTH” (Bayer Aktiengesellschaft, priority 2020, published 2024).
Read-outs that look alike come from different tables or passages of the source.

Columns and labels:
Assay type in all cases: in vivo
Oryza sativa (ORYSA) [1] = conditions: crop plant compatibility
In short: (§1)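 One-leaf-stage crops (2–3 wk post-sowing, sandy loam, greenhouse) sprayed on green parts; 0.5% additive, 600 l/ha water. Rated by eye ~3 wk later, % vs untreated; suffixes a/b/c mark different dosages.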

[2] = test system: Triticum aestivum (TRZAS); conditions: crop plant compatibility, effect vs untreated controls
In short: as §1

Zea mays (ZEAMX) [3] = conditions: for Post-emergence action against ZEAMX in % (crop plant compatibility): 20 g/ha, effect in comparison to untreated controls; for Post-emergence action against ZEAMX in %: crop plant compatibility, effect vs untreated controls
In short: as §1

Brassica napus (BRSNW) [4] = test: Post-emergence crop plant compatibility, BRSNW; conditions: effect in comparison to untreated controls
Procedure: Seeds of monocotyledonous and dicotyledonous weeds and crop plants are placed in sandy loam in plastic or organic planting pots, covered with soil and cultivated in a greenhouse under controlled growth conditions. 2 to 3 weeks after sowing, the test plants are treated at the one-leaf stage. The compounds of the invention, formulated in the form of wettable powders (WP) or as emulsion concentrates (EC), are then sprayed onto the green parts of the plants as aqueous suspension or emulsion with addition of 0.5% additive at a water application rate of 600 l/ha (converted). After the test plants have been kept in the greenhouse under optimum growth conditions for about 3 weeks, the activity of the preparations is rated visually in comparison to untreated controls. For example, 100% activity=the plants have died, 0% activity=like control plants.
The observed effects on selected crop plants are reported here in comparison to the untreated controls (values in %). The appendices “a”, “b” and “c” give differentiation by dosage used with otherwise the same crop plants tested.

Brassica napus (BRSNW) [5] = conditions: crop plant compatibility, in comparison to untreated controls
In short: (§2)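 Scoring: visual, % of untreated control, about 3 weeks after a pre-emergence application to the soil surface. Application used WP or EC formulations diluted in water with 0.5% additive at 600 l/ha; dosage levels are marked by suffixes a, b and c.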

Oryza sativa (ORYSA) [6] = conditions: pre-emergence, crop plant compatibility, in comparison to untreated controls
In short: as §2

[7] = test system: Triticum aestivum (TRZAS); conditions: pre-emergence, crop plant compatibility, in comparison to untreated controls
In short: as §2

Glycine max (GLXMA) [8] = conditions: pre-emergence, crop plant compatibility, in comparison to untreated controls
In short: as §2

Zea mays (ZEAMX) [9] = conditions: pre-emergence, crop plant compatibility, in comparison to untreated controls
In short: as §2

Glycine max (GLXMA) [10] = test: Post-emergence crop plant compatibility, GLXMA; conditions: post-emergence, effect in comparison to untreated controls
In short: as §1

Viola tricolor (VIOTR) [11] = test: Post-emergence herbicidal action against VIOTR; conditions: 320 g/ha
In short: (§3)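 Greenhouse plants sprayed at the one-leaf stage, 2–3 weeks after sowing, with WP or EC formulations plus 0.5% additive at 600 l/ha water. Activity rated visually after about 3 weeks versus untreated controls (100% = dead, 0% = like control), at 320 g/ha or lower.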

[12] = test system: Polygonum convolvulus (POLCO); test: Pre-emergence herbicidal action against POLCO; conditions: dosage 320 g/ha
In short: (§4)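 Pre-emergence soil-surface spray of compound, formulated as wettable powder or emulsion concentrate, in aqueous suspension or emulsion with 0.5% additive (600 l/ha; rate 320 g/ha or less). Activity rated visually after roughly 3 weeks in the greenhouse as a percentage of untreated controls, 0% meaning no difference.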

[13] = test system: Digitaria sanguinalis (DIGSA); test: Pre-emergence herbicidal action against DIGSA
In short: as §4

Viola tricolor (VIOTR) [14] = test: Pre-emergence herbicidal action against VIOTR; conditions: 320 g/ha, Viola tricolor
In short: as §4

[15] = test system: Echinochloa crus-galli (ECHCG); test: Post-emergence herbicidal action against ECHCG; conditions: dosage 320 g/ha
In short: as §3

[16] = test system: Verconica persica (VERPE); test: Post-emergence herbicidal action against VERPE; conditions: 320 g/ha, VERPE
In short: as §3

Setaria viridis (SETVI) [17] = test: Post-emergence herbicidal action against SETVI; conditions: dosage 320 g/ha
In short: as §3

Setaria viridis (SETVI) [18] = test: Pre-emergence herbicidal action against SETVI; conditions: dosage 320 g/ha
In short: as §4

[19] = test system: Amaranthus retroflexus (AMARE); test: Post-emergence herbicidal action against AMARE; conditions: 80 g/ha, visual rating about 3 weeks after treatment vs untreated controls (100% = plants have died, 0% = like control plants)
In short: as §3

[20] = test system: Verconica persica (VERPE); test: Pre-emergence herbicidal action against VERPE; conditions: dosage 320 g/ha
In short: as §4

[21] = test system: Amaranthus retroflexus (AMARE); test: Pre-emergence herbicidal action against AMARE; conditions: 320 g/ha, visual scoring after about 3 weeks vs untreated controls
In short: as §4

Lolium rigidum (LOLRI) = test: Pre-emergence herbicidal action against LOLRI; conditions: dosage 320 g/ha
In short: as §4

[22] = test system: Alopecurus myosuroides (ALOMY); test: Pre-emergence herbicidal action against ALOMY; conditions: 320 g/ha; scored visually after about 3 weeks; 100% = plants have died
In short: as §4

[23] = 20 g/ha, effect vs untreated controls
[24] = 80 g/ha, effect in comparison to untreated controls
[25] = 320 g/ha, effect in comparison to untreated controls

Row | Compound | Post-emergence action against ORYSA in % (Oryza sativa (ORYSA) [1]; [23]) | Post-emergence action against ORYSA in % (Oryza sativa (ORYSA) [1]; [24]) | Post-emergence action against TRZAS in % ([2]; 20 g/ha) | Post-emergence action against TRZAS in % ([2]; 80 g/ha) | Post-emergence action against ZEAMX in % (crop plant compatibility) (Zea mays (ZEAMX) [3]) | Post-emergence action against BRSNW in % (Brassica napus (BRSNW) [4]; 20 g/ha) | Pre-emergence action against BRSNW in % (Brassica napus (BRSNW) [5]; 80 g/ha) | Pre-emergence action against ORYSA in % (Oryza sativa (ORYSA) [6]; 80 g/ha) | Pre-emergence action against ORYSA in % (Oryza sativa (ORYSA) [6]; 320 g/ha) | Pre-emergence action against TRZAS in % ([7]; 80 g/ha) | Pre-emergence action against TRZAS in % ([7]; 320 g/ha) | Pre-emergence action against GLXMA in % (Glycine max (GLXMA) [8]; 320 g/ha) | Pre-emergence action against ZEAMX in % (Zea mays (ZEAMX) [9]; 80 g/ha) | Pre-emergence action against ZEAMX in % (Zea mays (ZEAMX) [9]; 320 g/ha) | Post-emergence action against GLXMA in % (Glycine max (GLXMA) [10]; 20 g/ha) | Post-emergence action against GLXMA in % (Glycine max (GLXMA) [10]; 80 g/ha) | Post-emergence action against BRSNW in % (Brassica napus (BRSNW) [4]; 80 g/ha) | Pre-emergence action against GLXMA in % (Glycine max (GLXMA) [8]; 80 g/ha) | Post-emergence action against ZEAMX in % (Zea mays (ZEAMX) [3]; 80 g/ha) | Pre-emergence action against BRSNW in % (Brassica napus (BRSNW) [5]; 320 g/ha) | also measured
1 | O=C(COc1nn(-c2ccnc(Cl)c2)c(-c2ccc(F)nc2)c1Br)NS(=O)(=O)CC(F)(F)F [III-20] | 0% | 0% | 0% | 0% | 0% | 0% | 0% | 0% | 10% | 0% | 0% | 20% | 0% | 0% | 0% | 0% |  |  |  |  | 
2 | CCOC(=O)C(Oc1nn(-c2ccccn2)c(-c2ccc(F)nc2)c1Br)C(C)C (centres unmarked) [Example I-349] |  | 0% |  |  |  |  |  |  |  | 10% |  | 10% | 10% | 20% |  | 0% | 20% | 0% |  |  | Post-emergence action against VIOTR in % (Viola tricolor (VIOTR) [11]): 80%; Post-emergence action against ORYSA in % (Oryza sativa (ORYSA) [1]; [25]): 10%; Pre-emergence action against POLCO in % [12]: 80%; Pre-emergence action against DIGSA in % ([13]; 80 g/ha, visual scoring after about 3 weeks vs untreated controls): 80%; Pre-emergence action against DIGSA in % ([13]; dosage 320 g/ha): 90%; Pre-emergence action against VIOTR in % (Viola tricolor (VIOTR) [14]): 80%
3 | CCOC(=O)COc1nn(-c2ncccc2F)c(-c2ccc(F)nc2)c1I [Example I-55] | 0% | 0% | 0% | 0% | 0% | 0% | 0% | 0% | 0% | 0% | 0% | 0% | 0% | 0% | 0% | 0% | 0% | 0% | 0% | 0% | 
4 | COC(=O)CNC(=O)COc1nn(-c2cccnc2C)c(-c2cncc(F)c2)c1Br [II-37] | 0% | 0% | 0% | 0% | 0% | 0% |  |  |  |  |  |  |  |  | 0% |  |  |  | 0% |  | Post-emergence action against VIOTR in % (Viola tricolor (VIOTR) [11]): 80%; Post-emergence action against ORYSA in % (Oryza sativa (ORYSA) [1]; [25]): 0%; Post-emergence action against TRZAS in % ([2]; 320 g/ha): 0%; Post-emergence action against ZEAMX in % (Zea mays (ZEAMX) [3]; 320 g/ha): 0%; Post-emergence action against ECHCG in % [15]: 80%; Post-emergence action against VERPE in % [16]: 90%; Post-emergence action against SETVI in % (Setaria viridis (SETVI) [17]): 80%
5 | COC(=O)CN(C)C(=O)COc1nn(-c2ccnc(Cl)c2)c(-c2ccc(F)nc2)c1Br [III-21] | 0% | 20% | 0% | 0% | 0% | 0% | 20% | 0% | 0% | 20% |  | 0% | 0% | 20% | 0% | 0% | 0% | 0% | 0% | 20% | 
6 | C[C@@H](Oc1nn(-c2ncccc2F)c(-c2ccc(F)nc2)c1Br)C(=O)O [Example I-50] | 10% | 10% | 10% | 10% | 0% | 10% | 0% |  |  | 10% | 10% |  | 0% | 0% | 0% | 10% | 20% |  | 0% | 20% | 
7 | COC(=O)CNC(=O)COc1nn(-c2ccccn2)c(-c2ccc(F)nc2)c1C1CC1 [Example I-70] | 0% | 0% | 0% | 10% | 0% | 20% | 20% | 0% | 10% | 10% |  |  | 0% | 0% |  |  |  | 10% | 10% |  | Pre-emergence action against SETVI in % (Setaria viridis (SETVI) [18]): 90%; Post-emergence action against AMARE in % [19]: 90%; Pre-emergence action against VERPE in % [20]: 80%; Pre-emergence action against AMARE in % [21]: 90%; Pre-emergence action against LOLRI in % (Lolium rigidum (LOLRI)): 90%; Pre-emergence action against ALOMY [22]: 90%; Pre-emergence action against VIOTR in % (Viola tricolor (VIOTR) [14]): 90%
8 | COC(=O)C1CCCN(C(=O)COc2nn(-c3ccccn3)c(-c3ccc(F)nc3)c2Br)C1 (centres unmarked) [Example I-108] | 0% | 10% | 0% | 20% | 0% | 10% | 10% | 0% | 10% | 0% | 10% | 0% | 10% | 10% | 0% | 10% |  | 0% | 10% | 20% | 
